According to patent US20250312462A1, “PAK1 DEGRADERS AND METHODS OF USE THEREOF” (INSTITUTE FOR CANCER RESEARCH D/B/A THE RESEARCH INSTITUTE …, priority 2022, published 2025):

Assays:
FLT3 = FLT3 (Homo sapiens, UniProt P36888); assay: KINOMEscan; conditions: read-out: Percent Control
Description: (§1) The kinase engagement assay (KINOMEscan®) was performed by DiscoverX assessing binding abilities toward a set of kinases.

RIPK1 = RIPK1 (Homo sapiens, UniProt Q13546); assay: KINOMEscan; conditions: read-out: Percent Control
Description: as §1

EGFR(L747-T751del, Sins) = EGFR(L747-T751del, Sins) (Homo sapiens, UniProt P00533, DEL747-750/T751S); assay: KINOMEscan; conditions: read-out: Percent Control
Sequence of EGFR(L747-T751del, Sins) (P00533 with tags, fused parts or gaps DEL747-750/T751S limits assumed): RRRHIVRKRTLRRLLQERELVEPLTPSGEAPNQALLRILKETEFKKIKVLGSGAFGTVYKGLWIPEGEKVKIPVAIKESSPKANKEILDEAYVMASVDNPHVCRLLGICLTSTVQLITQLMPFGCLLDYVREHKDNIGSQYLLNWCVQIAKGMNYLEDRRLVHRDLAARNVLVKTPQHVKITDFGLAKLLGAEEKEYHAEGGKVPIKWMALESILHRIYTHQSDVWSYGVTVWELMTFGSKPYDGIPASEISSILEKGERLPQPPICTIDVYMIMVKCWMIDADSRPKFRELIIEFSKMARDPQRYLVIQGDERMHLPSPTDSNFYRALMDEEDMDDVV
Description: as §1

FLT3(ITD) = assay: KINOMEscan; conditions: 10 μM
Description: as §1

PKAC-alpha = PKAC-alpha (Homo sapiens, UniProt P17612); assay: KINOMEscan; conditions: read-out: Percent Control
Description: as §1

PIK3CA(M1043I) = PIK3CA(M1043I) (Homo sapiens, UniProt P42336, M1043I); assay: KINOMEscan; conditions: read-out: Percent Control
Sequence of PIK3CA(M1043I) (P42336 whole entry M1043I): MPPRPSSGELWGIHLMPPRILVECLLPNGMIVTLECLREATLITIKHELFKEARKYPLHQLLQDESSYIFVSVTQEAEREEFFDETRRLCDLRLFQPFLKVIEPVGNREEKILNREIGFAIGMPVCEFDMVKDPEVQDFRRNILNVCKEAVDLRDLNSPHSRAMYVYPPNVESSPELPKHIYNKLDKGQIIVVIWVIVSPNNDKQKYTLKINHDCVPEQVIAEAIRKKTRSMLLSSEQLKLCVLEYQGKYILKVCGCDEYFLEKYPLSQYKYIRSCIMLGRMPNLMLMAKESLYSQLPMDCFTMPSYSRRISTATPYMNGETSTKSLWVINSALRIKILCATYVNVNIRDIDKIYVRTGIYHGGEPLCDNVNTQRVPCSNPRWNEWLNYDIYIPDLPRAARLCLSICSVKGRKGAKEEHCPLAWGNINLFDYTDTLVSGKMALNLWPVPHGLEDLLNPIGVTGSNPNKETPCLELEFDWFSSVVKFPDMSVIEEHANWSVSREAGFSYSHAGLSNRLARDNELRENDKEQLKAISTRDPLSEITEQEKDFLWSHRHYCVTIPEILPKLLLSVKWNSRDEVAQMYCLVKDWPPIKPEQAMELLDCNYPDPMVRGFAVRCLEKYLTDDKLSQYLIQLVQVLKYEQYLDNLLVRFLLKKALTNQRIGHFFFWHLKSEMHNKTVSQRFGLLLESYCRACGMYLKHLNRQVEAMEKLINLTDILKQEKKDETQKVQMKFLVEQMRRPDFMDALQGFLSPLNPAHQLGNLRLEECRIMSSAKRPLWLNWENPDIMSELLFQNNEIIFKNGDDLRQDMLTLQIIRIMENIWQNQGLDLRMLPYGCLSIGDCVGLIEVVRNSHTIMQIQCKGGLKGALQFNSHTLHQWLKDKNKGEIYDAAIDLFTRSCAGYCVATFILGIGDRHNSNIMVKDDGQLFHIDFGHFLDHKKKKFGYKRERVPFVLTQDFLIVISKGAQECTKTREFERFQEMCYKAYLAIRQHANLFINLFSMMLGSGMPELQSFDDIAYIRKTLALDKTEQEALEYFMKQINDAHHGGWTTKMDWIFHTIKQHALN
Description: as §1

PAK1 [1] = biological target: T1, PAK1 (Homo sapiens, UniProt Q13153); assay: Global multiplexed mass spectrometry proteomics in MOLT4 cells; format: cell-based; set-up: endogenous in cells; host or cells: MOLT4; conditions: 1 μM, 5 hours
T1 sequence (Q13153 whole entry): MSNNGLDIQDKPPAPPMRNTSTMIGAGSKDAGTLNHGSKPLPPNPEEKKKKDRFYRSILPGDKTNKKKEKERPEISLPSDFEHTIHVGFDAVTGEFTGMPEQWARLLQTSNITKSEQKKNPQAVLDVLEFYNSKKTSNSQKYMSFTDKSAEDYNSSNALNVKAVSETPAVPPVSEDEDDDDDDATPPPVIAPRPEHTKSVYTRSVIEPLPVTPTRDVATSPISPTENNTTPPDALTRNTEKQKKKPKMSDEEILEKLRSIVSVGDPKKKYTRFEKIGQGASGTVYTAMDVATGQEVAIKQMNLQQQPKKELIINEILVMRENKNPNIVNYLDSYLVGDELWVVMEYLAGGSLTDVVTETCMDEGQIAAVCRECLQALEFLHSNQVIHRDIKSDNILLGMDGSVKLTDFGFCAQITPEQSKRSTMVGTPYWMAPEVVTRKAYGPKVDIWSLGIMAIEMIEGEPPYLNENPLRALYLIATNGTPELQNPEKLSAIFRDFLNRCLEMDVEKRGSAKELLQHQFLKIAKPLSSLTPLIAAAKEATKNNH
Description: MOLT4 cells were treated with DMSO in biological triplicate and 1 μM BJG-05-039 for 5 hours and harvested by centrifugation. Cell lysis was performed by the addition of Urea buffer (8 M Urea, 50 mM NaCl, 50 mM 4-(2-hydroxyethyl)-1-piperazineethanesulfonic acid (EPPS) pH 8.5, Protease and Phosphatase inhibitors) followed by manual homogenization by 20 passes through a 21-gauge (1.25 in. long) needle. Lysate was clarified by centrifugation at 4° C. and protein quantified using bradford (Bio-Rad) assay. 100 μg of protein for each sample was reduced, alkylated and precipitated using methanol/chloroform as described (Donovan, et al. (2018) Elife 7: e38430). The resulting precipitated protein was resuspended in 4 M Urea, 50 mM HEPES pH 7.4, buffer for solubilization, followed by dilution to 1 M urea with the addition of 200 mM EPPS, pH 8. Proteins were digested for 12 hours at room temperature with LysC (1:50 ratio), followed by dilution to 0.5 M urea and a second digestion step was performed by addition of trypsin (1:50 ratio) for 6 hours at 37° C. […]
Quantification was performed using a MS3-based TMT method as described (Donovan et al. (2020) Cell 183(6):1714-1731). […]
Proteome Discoverer 2.4 (Thermo Fisher Scientific) was used for .RAW file processing and controlling peptide and protein level false discovery rates, assembling proteins from peptides, and protein quantification from peptides. […]

PAK1 [2] = biological target: T1, PAK1; assay: PAK1 degradation in MCF7 and OVCAR3 cells, immunoblot; format: cell-based; set-up: endogenous in cells; host or cells: MCF7, OVCAR3
Description: Protein lysates were harvested at the times specified.
Cell lysates were obtained by centrifugation at 13,500 rpm for 15 minutes at 4° C. BCA protein assay (Thermo Scientific) was used to determine protein concentration then equal amounts of total proteins were separated by SDS-PAGE (Bio-Rad) and transferred to PVDF membrane (Thermo Scientific) at 100V for 2 hours. Membranes were blocked in 5% (w/v) non-fat dry milk in tris-buffered saline with 0.1% Tween-20 (TBS-T) for 1 hour and incubated with primary antibody at 4° C. for overnight. Membranes were washed with TBS-T on the next day and incubated with HRP-conjugated secondary antibodies (Millipore) at room temperature for 1 hour and exposed to films after washing.

Sequence of RIPK1 (Q13546 whole entry): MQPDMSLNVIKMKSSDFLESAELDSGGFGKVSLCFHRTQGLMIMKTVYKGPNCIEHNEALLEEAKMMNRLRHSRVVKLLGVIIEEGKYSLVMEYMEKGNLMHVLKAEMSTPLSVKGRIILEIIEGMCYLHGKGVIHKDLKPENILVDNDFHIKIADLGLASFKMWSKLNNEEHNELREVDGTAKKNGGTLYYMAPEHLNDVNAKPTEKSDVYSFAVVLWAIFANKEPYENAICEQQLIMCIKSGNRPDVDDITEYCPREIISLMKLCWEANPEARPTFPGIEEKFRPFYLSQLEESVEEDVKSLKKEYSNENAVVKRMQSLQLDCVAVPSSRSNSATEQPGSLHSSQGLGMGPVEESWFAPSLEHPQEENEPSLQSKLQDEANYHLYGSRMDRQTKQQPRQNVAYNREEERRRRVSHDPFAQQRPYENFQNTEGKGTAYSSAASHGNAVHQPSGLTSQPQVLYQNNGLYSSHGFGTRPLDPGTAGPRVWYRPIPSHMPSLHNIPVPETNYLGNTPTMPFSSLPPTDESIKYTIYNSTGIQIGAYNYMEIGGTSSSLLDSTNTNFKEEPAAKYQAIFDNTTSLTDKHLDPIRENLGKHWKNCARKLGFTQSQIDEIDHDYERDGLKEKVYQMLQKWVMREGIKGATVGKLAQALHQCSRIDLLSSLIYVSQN
Sequence of FLT3 (P36888 27-993): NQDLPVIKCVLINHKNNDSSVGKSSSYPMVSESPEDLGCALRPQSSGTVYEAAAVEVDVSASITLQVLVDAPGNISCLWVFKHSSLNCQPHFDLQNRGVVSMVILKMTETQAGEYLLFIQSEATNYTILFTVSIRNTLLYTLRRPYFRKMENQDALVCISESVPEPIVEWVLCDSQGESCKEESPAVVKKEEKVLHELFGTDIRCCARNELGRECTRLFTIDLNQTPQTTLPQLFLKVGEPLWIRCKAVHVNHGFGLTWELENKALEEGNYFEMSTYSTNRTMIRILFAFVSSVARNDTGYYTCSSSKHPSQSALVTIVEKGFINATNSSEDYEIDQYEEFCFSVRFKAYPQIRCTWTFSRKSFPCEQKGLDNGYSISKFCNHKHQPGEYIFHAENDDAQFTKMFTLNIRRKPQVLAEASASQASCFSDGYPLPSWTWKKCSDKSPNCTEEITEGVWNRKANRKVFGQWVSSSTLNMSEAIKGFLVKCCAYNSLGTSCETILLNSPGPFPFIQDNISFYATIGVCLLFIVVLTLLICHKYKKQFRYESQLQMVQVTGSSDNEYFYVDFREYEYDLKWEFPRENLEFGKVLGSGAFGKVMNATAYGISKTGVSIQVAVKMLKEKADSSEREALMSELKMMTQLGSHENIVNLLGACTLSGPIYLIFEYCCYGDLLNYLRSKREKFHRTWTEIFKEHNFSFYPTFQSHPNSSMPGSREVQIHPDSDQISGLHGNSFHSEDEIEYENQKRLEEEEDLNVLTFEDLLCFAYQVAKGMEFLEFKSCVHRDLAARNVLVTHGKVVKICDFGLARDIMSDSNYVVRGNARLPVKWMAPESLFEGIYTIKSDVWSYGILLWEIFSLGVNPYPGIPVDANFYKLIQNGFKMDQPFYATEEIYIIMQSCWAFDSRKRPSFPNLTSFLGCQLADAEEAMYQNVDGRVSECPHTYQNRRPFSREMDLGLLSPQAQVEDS

O=C1CCC(N2C(=O)c3cccc(NCCCCCCCCNC(=O)N4CC[C@H](NC5=Nc6cc(F)ccc6N(CC(F)F)c6ccc(Cl)cc65)C4)c3C2=O)C(=O)N1 (stereo partly drawn) [BJG-05-039, (3S)-3-((2-Chloro-5-(2,2-difluoroethyl)-8-fluoro-5H-dibenzo[b,e][1,4]diazepin-11-yl)amino)-N-(8-((2-(2,6-dioxopiperidin-3-yl)-1,3-dioxoisoindolin-4-yl)amino)octyl)pyrrolidine-1-carboxamide]
remaining binding at 10 µM (FLT3): 53%
remaining binding at 10 µM (RIPK1): 65%
remaining binding at 10 µM (EGFR(L747-T751del, Sins)): 80%
Percent Control (FLT3(ITD)): 87
remaining binding at 10 µM (PKAC-alpha): 90%
remaining binding at 10 µM (PIK3CA(M1043I)): 100%
Change in protein abundance (PAK1 [1]): significant downregulation of this kinase was not apparent
Reduction in PAK1 levels by immunoblot (PAK1 [2]; FIG. 2A): ~50%
PAK1 degradation (PAK1 [2]; MCF7 and OVCAR3 cells): induced degradation of PAK1
Concentration of maximal PAK1 degradation (PAK1 [2]; MCF7 and OVCAR3 cells, 12 hour treatment): 10 nM
Time to partial degradation of PAK1 (PAK1 [2]; MCF7 cells, 250 nM, progressive loss out to 24 hours): ≤ 4 h
PAK1 degradation on co-treatment (PAK1 [2]; co-treatment with bortezomib or MLN4924): prevented PAK1 destabilization
PAK1 degradation at high concentration (hook effect) (PAK1 [2]; concentrations of 1 μM and greater): diminished PAK1 degradation was observed
